Results as given in patent US8877719B2, “Pest controlling composition” (Sumitomo Chemical Company, Limited, priority 2009, dated 2014).

Assays:
Type in all cases: in vivo
[1] = system: Spodoptera litura third-instar larvae; assay: Test Example 1: cabbage leaf immersion test, insecticidal ratio on Spodoptera litura third-instar larvae (spinetoram / spirotetramat); conditions: cabbage leaf immersed 60 seconds, four days after
Experimental: (§1) A flowable formulation containing 11.7 wt % of spinetoram (spinetoram J:spinetoram L=75:25 (weight ratio)) was diluted with water containing 0.02 vol % of a spreading agent (trade name: Sindain, manufactured by Sumitomo Chemical Co., Ltd.) so as to obtain a given concentration.
(§2) A flowable formulation containing 22.4 wt % of spirotetramat (trade name: Movento, manufactured by Bayer CropScience) was diluted with water containing 0.02 vol % of a spreading agent (trade name: Sindain, manufactured by Sumitomo Chemical Co., Ltd.) so as to obtain a given concentration.
The spinetoram water-diluted solution and spirotetramat water-diluted solution were mixed to prepare a test drug solution.
(§3) Cabbage was planted in a pot having a capacity of 860 ml and allowed to grow to 4-leaves stage. Leaves of the cabbage were cut one by one. One of the cabbage leaves was immersed in a test drug solution for 60 seconds. The cabbage leaf was air-dried, then, the cabbage leaf was placed in a cup having a capacity of 500 ml containing filter paper laid therein. Ten Spodoptera litura third-instar larvae were released in this cup. Four days after, life-or-death of the tested insects was observed. The results were corrected by the following formula, thereby calculating insecticidal ratio. The test was repeated three times. Insecticidal ratio (%)=100×(Mt−Mc)/(100−Mc)
Mt: insect death ratio (%) in test compound-treated area
Mc: insect death ratio (%) in test compound-non-treated area

[2] = system: Tetranychus urticae female adult insects; assay: Test Example 3: kidney bean leaf piece spray test, insecticidal ratio on Tetranychus urticae female adults; conditions: sprayed on kidney bean leaf pieces, three days after
Experimental: as §1, §2
(§4) A flowable formulation containing 22.9 wt % of spiromesifen (trade name: CLEAZAR, manufactured by Bayer CropScience) was diluted with water containing 0.02 vol % of a spreading agent (trade name: Sindain, manufactured by Sumitomo Chemical Co., Ltd.) so as to obtain a given concentration.
These water-diluted solutions were mixed to prepare a test drug solution.
A kidney bean leaf piece having a diameter of about 2 cm was inoculated with 10 Tetranychus urticae female adult insects. Then, the test drug solution was sprayed in an amount of 0.3 ml per two pieces of the kidney bean leaves. Three days after, life-or-death of the female adult insects was observed. From the observed results, the insecticidal ratio was calculated in the same manner as in Test Example 1. The test was repeated three times.

[3] = system: Spodoptera litura third-instar larvae; assay: Test Example 2: cabbage leaf immersion test, insecticidal ratio on Spodoptera litura third-instar larvae (spinetoram / spiromesifen); conditions: cabbage leaf immersed 60 seconds, four days after
Experimental: as §1, §4
The spinetoram water-diluted solution and spiromesifen water-diluted solution were mixed to prepare a test drug solution.
as §3, with “From” for “The results were corrected by”, “observed results, the” for “following formula, thereby calculating”, “ratio was calculated in the same manner as in Test Example 1.” for “ratio.”, “times.” for “times. Insecticidal ratio (%)=100×(Mt−Mc)/(100−Mc)”

## CCOC(=O)OC1=C(c2cc(C)ccc2C)C(=O)N[C@]12CC[C@@H](OC)CC2 [spirotetramat, cis-4-(ethoxycarbonyloxy)-8-methoxy-3-(2,5-xylyl)-1-azaspiro[4,5]dec-3-en-2-one]
[1]; 56 ppm
  Insecticidal ratio (%): 10.3%
[1]; 112 ppm
  Insecticidal ratio (%): 20.7%
[2]; 0.8 ppm
  Insecticidal ratio (%): 0%

## spinetoram
[1]; 0.73 ppm
  Insecticidal ratio (%): 17.2%
[3]; 0.73 ppm
  Insecticidal ratio (%): 6.9%
[2]; 12.5 ppm
  Insecticidal ratio (%): 28.4%

## Cc1cc(C)c(C2=C(OC(=O)CC(C)(C)C)C3(CCCC3)OC2=O)c(C)c1 [spiromesifen, 2-oxo-3-(2,4,6-trimethylphenyl)-1-oxaspiro[4,4]nona-3-en-4-yl 3,3-dimethylbutanoate]
[3]; 112 ppm
  Insecticidal ratio (%): 3.4%
[2]; 3.2 ppm
  Insecticidal ratio (%): 28.0%
